From patent US8551981B2, “Furo[3,2-d]pyrimidine compounds” (AbbVie Inc., priority 2010, dated 2013)

The compounds below were run on Fcγ receptor signaling (assay: Reverse Passive Arthus model). Settings: Rattus norvegicus, single dose 10 mg/kg.
Assay type: in vivo
Experimental: Acute in vivo measurement of Fcγ receptor signaling inhibition of the compounds is measured using the:
Reverse Passive Arthus Model
On day 0 OVA was made up at a concentration of 17 mg/mL, in PBS by rocking gently until a solution was formed. 2% Evans Blue solution (Sigma Aldrich, cat# E2129) was then added to double the volume for a final concentration of 8.5 mg/mL of OVA and 1% Evans Blue dye. Anti-OVA antibody (Abazyme), stock concentration 10 mg/mL, was thawed and a 4 mg/mL solution was made with PBS. Compounds were made up in 0.5% HPMC with 0.02% Tween 80, and vortexed for about 15 seconds followed by homogenization for a minimum of about 2 min at 28,000 RPM until there was a fine particulate suspension with no clumps of compound. Rats were weighed and dosed with compound at a pre-determined time based on compound Tmax determined in pharmacokinetic studies. Animals were then placed under general anesthesia with a 5% isoflourane and oxygen mixture and shaved. Using a 0.5 cc insulin syringe two sites were injected i.d., 1 site with 100 μL of 4.0 mg/mL of anti-OVA antibody, and 1 site with 100 μL of sterile PBS. Each injection site was circled with a permanent marker to mark the site. Immediately following i.d. injections, animals were injected with 200 μL of the OVA (10 mg/kg)/1% Evans Blue mixture, i.v., using a 0.5 cc insulin syringe. About 4 h post injection animals were euthanized, bled via cardiac puncture and blood was put into plasma separation tubes. Blood samples were stored on ice until centrifugation (within about 2 h of collection). Each injection site was removed with a disposable biopsy punch (Acuderm Acu-Punch Disposable 12 mm), cut into four pieces and placed in a pre-labeled 2 mL eppendorf tube. One mL of DMF (99%) was added to each biopsy tube and they were placed in a heat block at about 50° C. for about 24 h. After incubation, 100 μL of each sample was transferred to a 96 well flat bottom plate and read at 620 nm on a plate reader using the Softmax software. Background was removed by subtracting the OD from the PBS injected site from the OD of the anti-OVA injected site for each individual animal. Plasma samples were spun down in a microcentrifuge (Eppendorf 5415R) for about 5 min at 16.1 rcf. 200 μL of plasma was placed in a 1.7 mL eppendorf tube for drug level measurements and tubes were stored at about −80° C. until evaluation.
Compound Clc1cc(Nc2nc(NC3CCC3)c3occc3n2)ccc1N1CCOCC1 [B.5.2] has an inhibition in vivo at 10 mg/kg of 55%. Cn1ncc2cc(Nc3nc(NC4CC4)c4occc4n3)ccc21 [B.5.8] gave an inhibition in vivo at 10 mg/kg of 49%. In the case of FC(F)(F)CNc1nc(Nc2ccc(N3CCOCC3)c(Cl)c2)nc2ccoc12 [B.5.13], the inhibition in vivo at 10 mg/kg is reported as 17%. O=C1Nc2cc(Nc3nc(NC4CC4)c4occc4n3)ccc2OC1(F)F [B.5.40] gave an inhibition in vivo at 10 mg/kg of 3%. CC1(C)Cc2ccc(Nc3nc(NC4CC4)c4occc4n3)cc2NC1=O [B.5.41] gave an inhibition in vivo at 10 mg/kg of 42%. For CC(C)(C#N)c1ccc(Nc2nc(NC3CC3)c3occc3n2)cc1 [B.5.42], the inhibition in vivo at 10 mg/kg was 27%. O=c1[nH]c2cc(Nc3nc(NC4CC4)c4occc4n3)ccc2cc1CO [B.5.50] showed an inhibition in vivo at 10 mg/kg of 0%. For O=c1ccc2ccc(Nc3nc(NC4CC4)c4occc4n3)cc2o1 [B.5.52], the inhibition in vivo at 10 mg/kg was 0%. In the case of O=C1CCCc2cc(Nc3nc(NC4CC4)c4occc4n3)ccc2N1 [B.5.56], the inhibition in vivo at 10 mg/kg is reported as 49%. Work on CC1(C)C(=O)Nc2cc(Nc3nc(N4CCC(CNCC(F)F)CC4)c4occc4n3)ccc21 [B.5.60] yielded an inhibition in vivo at 10 mg/kg of 10%. CC1(C)C(=O)Nc2cc(Nc3nc(N[C@@H]4[C@H](C(N)=O)[C@H]5C=C[C@@H]4C5)c4occc4n3)ccc21 [B.5.61] was tested, and the inhibition in vivo at 10 mg/kg was 1%. With CC1(C)Oc2ccc(Nc3nc(Nc4ccc5c(c4)NC(=O)C(C)(C)O5)c4occc4n3)cc2NC1=O [B.5.62] the inhibition in vivo at 10 mg/kg was 16%. Work on CC1(C)Oc2ccc(Nc3nc(N4CCC(CNCCS(C)(=O)=O)CC4)c4occc4n3)cc2NC1=O [B.5.65] yielded an inhibition in vivo at 10 mg/kg of 9%. In the case of CC1(C)C(=O)Nc2cc(Nc3nc(N4CCC(CNCCS(C)(=O)=O)CC4)c4occc4n3)ccc21 [B.5.68], the inhibition in vivo at 10 mg/kg is reported as 1%. In the case of CC1(C)C(=O)Nc2cc(Nc3nc(N4CCC(CNCCF)CC4)c4occc4n3)ccc21 [B.5.77], the inhibition in vivo at 10 mg/kg is reported as 20%. In the case of CC(C)CNc1nc(Nc2ccc3c(c2)NC(=O)C3(C)C)nc2ccoc12 [B.5.80], the inhibition in vivo at 10 mg/kg is reported as 46%. CCCNc1nc(Nc2ccc3c(c2)NC(=O)C3(C)C)nc2ccoc12 [B.5.81] gave an inhibition in vivo at 10 mg/kg of 16%. With O=C1COc2ccc(Nc3nc(N4CCC(CNCC(F)F)CC4)c4occc4n3)cc2N1 [B.5.84] the inhibition in vivo at 10 mg/kg was 38%. Compound FC(F)CNCC1CCN(c2nc(Nc3ccc(N4CCOCC4)c(Cl)c3)nc3ccoc23)CC1 [B.5.85] has an inhibition in vivo at 10 mg/kg of 52%. Cc1cc2ccc(Nc3nc(NC4CC4)c4occc4n3)cc2[nH]c1=O [B.5.99] gave an inhibition in vivo at 10 mg/kg of 16%. For CC1(C)C(=O)Nc2cc(Nc3nc(NC4CCC4)c4occc4n3)ccc21 [B.5.108], the inhibition in vivo at 10 mg/kg was 56%. Work on CNCC1CCN(c2nc(Nc3ccc(N4CCN(C(C)=O)CC4)cc3)nc3ccoc23)CC1 [C.1.2] yielded an inhibition in vivo at 10 mg/kg of -17%. CC(=O)N(C)c1ccc(Nc2nc(N3CCC(CN)CC3)c3occc3n2)cc1 [C.1.7] was tested, and the inhibition in vivo at 10 mg/kg was 22%. In the case of CCCC(=O)Nc1ccc(Nc2nc(N3CCC(CN)CC3)c3occc3n2)cc1 [C.1.8], the inhibition in vivo at 10 mg/kg is reported as 0%. CNCC1CCN(c2nc(Nc3ccc4cn[nH]c4c3)nc3ccoc23)CC1 [C.1.23] was tested, and the inhibition in vivo at 10 mg/kg was -15%. In the case of Cc1n[nH]c2cc(Nc3nc(N4CCCC(N)CC4)c4occc4n3)ccc12 (stereo not shown) [C.1.29], the inhibition in vivo at 10 mg/kg is reported as -5%. With Cc1n[nH]c2cc(Nc3nc(N4CCC(C)(CN)CC4)c4occc4n3)ccc12 [C.1.31] the inhibition in vivo at 10 mg/kg was 0%. CC1(CN)CCN(c2nc(Nc3ccc4c(c3)NC(=O)C4(C)C)nc3ccoc23)CC1 [C.1.32] was tested, and the inhibition in vivo at 10 mg/kg was 8%. With CC1(CN)CCN(c2nc(Nc3ccc4c(c3)NC(=O)C(C)(C)O4)nc3ccoc23)CC1 [C.1.33] the inhibition in vivo at 10 mg/kg was 30%. In the case of CC1(C)Oc2ccc(Nc3nc(N4CCC5(CCCNC5)C4)c4occc4n3)cc2NC1=O (stereo not shown) [C.1.36], the inhibition in vivo at 10 mg/kg is reported as -31%. In the case of CC1(C)C(=O)Nc2cc(Nc3nc(N4CCC5(CCCNC5)CC4)c4occc4n3)ccc21 [C.1.37], the inhibition in vivo at 10 mg/kg is reported as -5%. Work on COc1cc(Nc2nc(N3CCC4(CCCNC4)CC3)c3occc3n2)ccc1N1CCOCC1 [C.1.39] yielded an inhibition in vivo at 10 mg/kg of 44%. In the case of Cn1ncc2cc(Nc3nc(N4CCC5(CCNC5)CC4)c4occc4n3)ccc21 [C.1.40], the inhibition in vivo at 10 mg/kg is reported as 40%. With Clc1cc(Nc2nc(N3CCC4(CCCNC4)CC3)c3occc3n2)ccc1N1CCOCC1 [C.1.41] the inhibition in vivo at 10 mg/kg was 40%. In the case of Cn1ncc2cc(Nc3nc(N4CCC5(CCCNC5)CC4)c4occc4n3)ccc21 [C.1.43], the inhibition in vivo at 10 mg/kg is reported as 56%. With Clc1cc(Nc2nc(N3CCC4(CCNC4)CC3)c3occc3n2)ccc1N1CCOCC1 [C.1.44] the inhibition in vivo at 10 mg/kg was 54%. For CNCC1CCN(c2nc(Nc3ccc4c(C)n[nH]c4c3)nc3ccoc23)CC1 [C.1.48], the inhibition in vivo at 10 mg/kg was 1%. CNCC1CCN(c2nc(Nc3ccc4c(cnn4C)c3)nc3ccoc23)CC1 [C.1.49] showed an inhibition in vivo at 10 mg/kg of -20%. In the case of CNCC1CCN(c2nc(Nc3ccc4c(c3)NC(=O)C4(C)C)nc3ccoc23)CC1 [C.1.51], the inhibition in vivo at 10 mg/kg is reported as -7%. For Cc1n[nH]c2cc(Nc3nc(N[C@@H]4[C@H](C(N)=O)[C@H]5C=C[C@@H]4C5)c4occc4n3)ccc12 [C.1.52], the inhibition in vivo at 10 mg/kg was 8%. With CNCC1CCN(c2nc(Nc3ccc(C(C)(C)C#N)cc3)nc3ccoc23)CC1 [C.1.57] the inhibition in vivo at 10 mg/kg was 12%. CC1(C)Oc2ccc(Nc3nc(N4CCC5(CCNC5)CC4)c4occc4n3)cc2NC1=O [C.1.58] showed an inhibition in vivo at 10 mg/kg of -18%. Work on CC1(C)Oc2ccc(Nc3nc(N4CCC5(CCCNC5)CC4)c4occc4n3)cc2NC1=O [C.1.59] yielded an inhibition in vivo at 10 mg/kg of 20%. In the case of Cc1n[nH]c2cc(Nc3nc(N4CCC(CNCCS(C)(=O)=O)CC4)c4occc4n3)ccc12 [C.1.60], the inhibition in vivo at 10 mg/kg is reported as 24%. In the case of NCC1CCN(c2nc(Nc3ccc4c(c3)NC(=O)CC4)nc3ccoc23)CC1 [C.1.61], the inhibition in vivo at 10 mg/kg is reported as 20%. In the case of CC(N)C1CCN(c2nc(Nc3ccc4c(c3)NC(=O)C(C)(C)O4)nc3ccoc23)CC1 (stereo not shown) [C.1.62], the inhibition in vivo at 10 mg/kg is reported as -6%. CNCC1CCN(c2nc(Nc3ccc4c(c3)NC(=O)C(C)(C)S4)nc3ccoc23)CC1 [C.1.71] gave an inhibition in vivo at 10 mg/kg of 85%. Compound O=C(NC1CC1)c1n[nH]c2cc(Nc3nc(NC4CC4)c4occc4n3)ccc12 [E.2.1, N-Cyclopropyl-6-(4-(cyclopropylamino)furo[3,2-d]pyrimidin-2-ylamino)-1H-indazole-3-carboxamide] has an inhibition in vivo at 10 mg/kg of -1%. Work on Cc1n[nH]c2cc(Nc3nc(NC4CC4)c4occc4n3)ccc12 [Example #3, N^4-Cyclopropyl-N^2-(3-methyl-1H-indazol-6-yl)furo[3,2-d]pyrimidine-2,4-diamine] yielded an inhibition in vivo at 10 mg/kg of 75%. CC1Cc2ccc(Nc3nc(NC4CC4)c4occc4n3)cc2NC1=O (stereo not shown) [Example #6, 7-(4-(Cyclopropylamino)furo[3,2-d]pyrimidin-2-ylamino)-3-methyl-3,4-dihydroquinolin-2(1H)-one] was tested, and the inhibition in vivo at 10 mg/kg was 59%. O=C1CCc2ccc(Nc3nc(NC4CC4)c4occc4n3)cc2N1 [Example #7, 7-(4-(Cyclopropylamino)furo[3,2-d]pyrimidin-2-ylamino)-3,4-dihydroquinolin-2(1H)-one] showed an inhibition in vivo at 10 mg/kg of 73%. CC1(C)C(=O)Nc2cc(Nc3nc(NC4CC4)c4occc4n3)ccc21 [Example #11, 6-(4-(Cyclopropylamino)furo[3,2-d]pyrimidin-2-ylamino)-3,3-dimethylindolin-2-one] was tested, and the inhibition in vivo at 10 mg/kg was 65%. With CC1(CN)CCN(c2nc(Nc3ccc4cn[nH]c4c3)nc3ccoc23)CC1 [Example #12, 4-(4-(Aminomethyl)-4-methylpiperidin-1-yl)-N-(1H-indazol-6-yl)furo[3,2-d]pyrimidin-2-amine] the inhibition in vivo at 10 mg/kg was 8%. FC(F)(F)CNc1nc(Nc2ccc3cn[nH]c3c2)nc2ccoc12 [Example #13, N^2-(1H-Indazol-6-yl)-N^4-(2,2,2-trifluoroethyl)furo[3,2-d]pyrimidine-2,4-diamine] showed an inhibition in vivo at 10 mg/kg of 70%. c1cc2nc(Nc3ccc4cn[nH]c4c3)nc(NC3CC3)c2o1 [Example #15, N^4-Cyclopropyl-N^2-(1H-indazol-6-yl)furo[3,2-d]pyrimidine-2,4-diamine] was tested, and the inhibition in vivo at 10 mg/kg was 45%. With CC1(C)C(=O)Nc2cc(Nc3nc(NCC(F)F)c4occc4n3)ccc21 [Example #16, 6-(4-(2,2-Difluoroethylamino)furo[3,2-d]pyrimidin-2-ylamino)-3,3-dimethylindolin-2-one] the inhibition in vivo at 10 mg/kg was 63%. Cc1cc(Nc2nc(NC3CC3)c3occc3n2)cc2[nH]ncc12 [Example #AC.1, N^4-cyclopropyl-N^2-(4-methyl-1H-indazol-6-yl)furo[3,2-d]pyrimidine-2,4-diamine] gave an inhibition in vivo at 10 mg/kg of 43%. Cc1n[nH]c2cc(Nc3nc(N4CCC(O)(CN)CC4)c4occc4n3)ccc12 [Example #AM.1, 4-(Aminomethyl)-1-(2-(3-methyl-1H-indazol-6-ylamino)furo[3,2-d]pyrimidin-yl)piperidin-4-ol] was tested, and the inhibition in vivo at 10 mg/kg was 3%.
